Test results reported in ChEMBL document CHEMBL2440108, “Synthesis and enzymatic evaluation of phosphoramidon and its β anomer: Anomerization of α-l-rhamnose triacetate upon phosphitylation” (Bioorg Med Chem, 2013).
pIC50, pKd, pKi: −log10 of the molar value.

Legend:
Thermolysin [1] = target: T1, Thermolysin (Bacillus thermoproteolyticus, UniProt P00800); experiment: Inhibition of Bacillus thermoproteolyticus thermolysin
T1 sequence (P00800 whole entry): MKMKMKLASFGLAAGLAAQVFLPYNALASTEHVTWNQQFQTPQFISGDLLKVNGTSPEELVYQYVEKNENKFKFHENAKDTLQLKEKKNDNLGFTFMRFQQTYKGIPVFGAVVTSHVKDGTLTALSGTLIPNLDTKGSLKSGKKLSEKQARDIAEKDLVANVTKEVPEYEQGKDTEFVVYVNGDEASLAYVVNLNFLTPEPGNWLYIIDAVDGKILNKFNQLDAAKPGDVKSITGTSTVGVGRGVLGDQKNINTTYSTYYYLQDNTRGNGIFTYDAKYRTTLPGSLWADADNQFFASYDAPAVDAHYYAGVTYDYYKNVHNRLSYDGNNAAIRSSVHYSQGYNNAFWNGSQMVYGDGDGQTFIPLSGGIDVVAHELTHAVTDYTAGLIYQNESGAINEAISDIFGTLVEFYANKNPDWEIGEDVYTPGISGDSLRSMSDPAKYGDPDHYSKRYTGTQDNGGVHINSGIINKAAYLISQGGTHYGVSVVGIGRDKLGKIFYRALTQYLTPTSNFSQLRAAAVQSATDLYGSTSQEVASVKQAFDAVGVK

Thermolysin [2] = target: T1, Thermolysin; experiment: Inhibition of Bacillus thermoproteolyticus thermolysin using […] as substrate at pH 7.5 after 15 mins by Henderson plot analysis
[3] = Inhibition of endothelin-converting enzyme (unknown origin); parameters: species or system Homo sapiens
Thermolysin [4] = target: T1, Thermolysin; experiment: Binding affinity to Bacillus thermoproteolyticus thermolysin at pH 7.5 after 15 mins by fluorescence spectrophotometry

Compound	pKi (Thermolysin [1])	pKi (Thermolysin [2])	pIC50 [3]	pKd (Thermolysin [4])
CC(C)C[C@H](NP(=O)(O)O[C@@H]1O[C@@H](C)[C@H](O)[C@@H](O)[C@H]1O)C(=O)N[C@@H](Cc1c[nH]c2ccccc12)C(=O)O	7.49	7.52	6.16	–
CC(C)C[C@H](NP(=O)(O)O[C@H]1O[C@@H](C)[C@H](O)[C@@H](O)[C@H]1O)C(=O)N[C@@H](Cc1c[nH]c2ccccc12)C(=O)O	–	6.55	–	6.68
